Like-named read-outs stand apart in the source and are kept apart here.
Columns and labels:
[1] = Huntington's disease patients, oral 10 mg/kg/day for 6 weeks; cited from earlier work
[2] = rat, 7.98 mg/kg, cited from earlier work; for CBD serum level: vaporized CBD, by four hours
[3] = Pharmacokinetic study in rats: dry powder insufflation of TFF-CBD and intravenous CBD solution; assay type: in vivo; details: plasma, intravenous solution 10 mg/kg, rat, read-out: Cannabidiol concentration in rat plasma, Intravenous
Procedure: A dry powder formulation for inhalation containing 25% (w/w) of Cannabidiol (CBD) was developed using TFF technology, and a pharmacokinetic (PK) study in rats was performed using PennCentury™ DP4 dry powder Insufflator™ with a target delivered dose of 10 mg/kg CBD. […] For comparison and in contrast to the plasma levels of this TFF-CBD inhaled powder, in an inhaled CBD pharmacokinetic study in rats reported by Hložek et al. (2017) using CBD dissolved in a ethanolic solution and vaporized using heat, the inventors calculated based on information in this paper the administered amount of CBD as the delivered dose of 1.798 mg, or 7.98 mg/kg (calculated according Wang et al., 2014; DD=C×RMV×D, where DD is the delivered dose in mg, C is the concentration of drug powder in air in mg/L, RMV is the respiratory minute volume of a rat in L/min (RMV (L/min) for rats is calculated as =0.608×BW (kg)^0.852), and D is the exposure duration in min; based on 20 mg CBD nebulized into 9.5 L dosing chamber; a calculated RMV of 0.17 L/min, an average body weight of 225 g and exposure time of 5 min). […] There is a difference between this TFF-CBD inhaled powder that maintained relatively constant plasma levels over 8 hours compared to the rapid decline in serum levels of inhaled CBD ethanolic solution reported by Hložek et al. (2017). Possible explanations include that the TFF-CBD powder can better avoid lung clearance and that the TFF-CBD powder particles deposited in the lungs continue to dissolve and be absorbed from the lungs to plasma. (Beinborn et al., 2012; Wang et al., 2014; Carvalho et al., 2014). […] For comparison, based on CBD plasma levels of Huntington's disease patients, as reported by Consroe et al. (1991), the orally administered CBD dose of 10 mg/kg/day, which is the recommended maintenance dose of Epidiolex®, for 6 weeks by oral administration resulted a steady state CBD plasma level between 5.9 and 11.2 ng/mL.
To study of plasma level with lower dose of the TFF-CBD powder by dry powder inhalation, another pharmacokinetic study in rats was performed using PennCentury™ DP4 dry powder Insufflator™ with a target delivered dose of 3 mg/kg and 1 mg/kg CBD. […] In other words, TFF-CBD dry powder inhalation was more efficient in delivering CBD than the vaporized CBD liquid. Therefore, delivery of TFF-CBD powder by dry powder inhalation requires a lower dose to reach the similar systemic levels of CBD as compared to vaporized CBD liquid by inhalation, thus showing TFF-CBD will present better efficacy at equivalent doses.

SMILES: C=C(C)[C@@H]1CCC(C)=C[C@H]1c1c(O)cc(CCCCC)cc1O [Cannabidiol]
- effect of the dosing level in Huntington's disease [1]: neither symptomatically effective nor toxic
- CBD serum level, peak ([2]; vaporized CBD ethanolic solution, immediately after removal from inhalation dosing chamber): about 220 ng/mL
- CBD serum level ([2]; listed as CBD): less than 20 ng/mL
- CBD serum level [2]: below 20 ng/mL
- concentration at 0.083 h ([3]; n=5, 0.083 h): 4280 ± 891 ng/mL
- concentration at 0.25 h ([3]; n=5, 0.25 h): 1770 ± 297 ng/mL
- concentration at 0.5 h ([3]; n=5, 0.5 h): 1040 ± 217 ng/mL
- concentration at 1 h ([3]; n=5, 1 h): 601 ± 193 ng/mL
- concentration at 2 h ([3]; n=5, 2 h): 272 ± 112 ng/mL
- concentration at 4 h ([3]; n=5, 4 h): 50 ± 23 ng/mL
- concentration at 8 h ([3]; n=5, 8 h): 16.1 ± 11.3 ng/mL

— patent US20220339227A1, “COMPOSITIONS OF CANNABINOIDS FOR DELIVERY BY INHALATION” (priority 2019, published 2022)
